Measurements: patent US20080139520A1, “Altering cholesterol and fat uptake by novel allosteric inhibitors of pancreatic phospholipase A2” (priority 2006, published 2008)

Assays:
[1] = target: T1, PLA2 M20W/W3F (Sus scrofa, UniProt P00592, M42W/W25F); assay: Bile salt binding by Trp emission, M20W/W3F PLA2; design: species or system pig; details: read-out: KEB
T1 construct: made in house
Description: (§1) Fluorescence emission spectrum or time course of the intensity change from tryptophan or the resonance energy transfer probe TMA-DPH were measured in the ratio mode on SLM-Aminco AB2 in a 1 cm cuvette [31, 32] in 1.6 ml stirred buffer containing 1 or 2 μM PLA2 in 10 mM Tris, 5 mM CaCl2 and 20 mM NaCl at pH 8.0 and 24° C. The slit-widths were 4 nm with excitation at 280.
(§2) As shown in [45], the binding of decylsulfate to the R site is accompanied by a modest increase in the emission intensity from Trp-3. […] As summarized in Table 2, the value of KEB depends on the position of Trp, although Hill coefficient remains 1. […] Note that KEB for the EB complex of ΔPLA2 is about 7-fold larger than that for PLA2.

[2] = target: T2, PLA2 L19W/W3F (Sus scrofa, UniProt P00592, L41W/W25F); assay: Bile salt binding by Trp emission, L19W/W3F PLA2; design: species or system pig; details: read-out: KEB
T2 construct: made in house
Description: as §1, §2

[3] = target: PLA2 K10M (Sus scrofa, UniProt P00592, K32M); assay: Bile salt binding by Trp emission, K10M PLA2; design: species or system pig; details: read-out: KEB
Description: as §1, §2

[4] = target: T3, PLA2 R6W/W3F (Sus scrofa, UniProt P00592, R28W/W25F); assay: Bile salt binding by Trp emission, R6W/W3F PLA2; design: species or system pig; details: read-out: KEB
T3 construct: made in house
Description: as §1, §2

[5] = test system: Naja venom PLA2; type: biochemical, Naja melanoleuca
Description: Aqueous dispersion of phospholipid was sonicated in a bath type sonicator. Virtually transparent suspension was annealed for at least 4 hours at room temperature before use. Reaction progress for the PLA2 catalyzed hydrolysis of sonicated DMPC (1 mM) vesicles was measured by pH-stat titration (Radiometer) with 1 mM 2-aminopropanediol in 4 ml reaction buffer containing 5 mM CaCl2 for DMPC (or 0.5 mM for DMPM), 1 mM NaCl, and 0.1 mM EDTA at pH 8.0 and 24° C. in the nitrogen purged closed atmosphere. Reaction was initiated by adding 0.1 μg enzyme in 1-10 μl solution. The pH stat method was also used for monitoring the rate of hydrolysis of DMPM (0.4 mM) vesicles in the presence of polymyxin [27-29], or of the mixed-micelles of POPC with bile salts in 1:2 ratio [13, 30].

[6] = target: PLA2 R6M (Sus scrofa, UniProt P00592, R28M); assay: Bile salt binding by Trp emission, R6M PLA2; design: species or system pig; details: read-out: KEB
Description: as §1, §2

[7] = target: T4, PLA2 (Sus scrofa, UniProt P00592); assay: Isothermal calorimetric titration of PLA2 with bile salt; type: binding, pig; details: ITC
T4 construct: made in house
Description: ITC titration of PLA2 with <1 mM (below the CMC) bile salt stock solution was carried out on the Microcal calorimeter (model VP-itc) with cell volume of 1.42 ml with stirring at 300 rpm. Successive injections were made every 5 min. Standard software was used for the peak integration. The heat change with the internal calibration associated with the dilution of the titrant in the […] was subtracted from the heat change obtained by the injection of the bile salt in the presence of 8.5 μM PLA2. The net heat change per injection in the presence of PLA2 was integrated to obtain the total heat change as a function of the total added amphiphile concentration.

T4 sequence (P00592 23-146): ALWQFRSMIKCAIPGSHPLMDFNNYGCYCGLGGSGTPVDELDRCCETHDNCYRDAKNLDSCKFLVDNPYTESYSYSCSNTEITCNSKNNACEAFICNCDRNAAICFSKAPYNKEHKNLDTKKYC
T3 sequence (P00592 23-146 W25F/R28W): as the sequence (P00592 23-146) above, with W3F, R6W counted along it
PLA2 R6M, sequence (P00592 23-146 R28M): as the sequence (P00592 23-146) above, with R6M counted along it
PLA2 K10M, sequence (P00592 whole entry K32M): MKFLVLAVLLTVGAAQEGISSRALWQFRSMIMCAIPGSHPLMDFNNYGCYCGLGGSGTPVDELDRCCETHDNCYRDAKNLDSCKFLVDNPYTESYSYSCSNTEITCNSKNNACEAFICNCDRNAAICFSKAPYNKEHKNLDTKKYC
T2 sequence (P00592 23-146 W25F/L41W): as the sequence (P00592 23-146) above, with W3F, L19W counted along it
T1 sequence (P00592 23-146 W25F/M42W): as the sequence (P00592 23-146) above, with W3F, M20W counted along it

Work on `C[C@H](CCC(=O)NCCS(=O)(=O)O)[C@H]1CC[C@H]2[C@@H]3[C@H](O)C[C@@H]4C[C@H](O)CC[C@]4(C)[C@H]3CC[C@]12C` [TCDOC, taurochenodeoxycholate] yielded a Kd [1] of 75 µM, a Kd [2] of 3 µM and a Kd [3] of 8 µM. For the same compound, the Kd [4] was 50 µM, the “rate lowering effect with Naja venom enzyme” value [5] was “not observed” and the Kd [6] was 150 µM. It also gave an S ([7]; 8.5 μM PLA2) of 3.5 cal/mole/deg, a Hill coefficient ([7]; single hyperbola fit) of 1 and a Kd ([7]; KEB, 8.5 μM PLA2) of 9 µM.
